Settings: Liquid, Vibrating tube method

CCCCCCCCCC [decane]
Settings | mass density [kg/m3]
303.15 K, 32305 kPa | 745.4
303.15 K, 32325 kPa | 745.3
303.15 K, 32357 kPa | 745.5
303.15 K, 32384 kPa | 745.5
303.15 K, 32413 kPa | 745.5
303.15 K, 32436 kPa | 745.5
303.15 K, 32459 kPa | 745.5
303.15 K, 32482 kPa | 745.5
303.15 K, 32502 kPa | 745.6
303.15 K, 32522 kPa | 745.4
303.15 K, 32543 kPa | 745.6
303.15 K, 32563 kPa | 745.6
303.15 K, 32588 kPa | 745.6
303.15 K, 32611 kPa | 745.7
303.15 K, 32637 kPa | 745.6
303.15 K, 32667 kPa | 745.7
303.15 K, 32691 kPa | 745.7
303.15 K, 32718 kPa | 745.7
303.15 K, 32741 kPa | 745.7
303.15 K, 32758 kPa | 745.8
303.15 K, 32788 kPa | 745.8
303.15 K, 32812 kPa | 745.8
303.15 K, 32840 kPa | 745.9
303.15 K, 32864 kPa | 745.9
303.15 K, 32892 kPa | 745.8
303.15 K, 32923 kPa | 745.8
303.15 K, 32943 kPa | 745.9
303.15 K, 32971 kPa | 745.9
303.15 K, 32989 kPa | 745.9
303.15 K, 33010 kPa | 745.9
303.15 K, 33031 kPa | 746
303.15 K, 33062 kPa | 746
303.15 K, 33093 kPa | 746
303.15 K, 33114 kPa | 746
303.15 K, 33138 kPa | 746.1
303.15 K, 33163 kPa | 746
303.15 K, 33184 kPa | 746
303.15 K, 33212 kPa | 746.1
303.15 K, 33230 kPa | 746.1
303.15 K, 33258 kPa | 746.1
303.15 K, 33286 kPa | 746
303.15 K, 33314 kPa | 746.1
303.15 K, 33339 kPa | 746.1
303.15 K, 33364 kPa | 746
303.15 K, 33389 kPa | 746.1
303.15 K, 33424 kPa | 746.1
303.15 K, 33458 kPa | 746.1
303.15 K, 33487 kPa | 746.2
303.15 K, 33512 kPa | 746.2
303.15 K, 33545 kPa | 746.2
303.15 K, 33566 kPa | 746.3
303.15 K, 33588 kPa | 746.3
303.15 K, 33621 kPa | 746.3
303.15 K, 33642 kPa | 746.3
303.15 K, 33676 kPa | 746.4
303.15 K, 33697 kPa | 746.3
303.15 K, 33719 kPa | 746.4
303.15 K, 33741 kPa | 746.4
303.15 K, 33764 kPa | 746.3
303.15 K, 33790 kPa | 746.4
303.15 K, 33816 kPa | 746.4
303.15 K, 33848 kPa | 746.4
303.15 K, 33871 kPa | 746.4
303.15 K, 33904 kPa | 746.4
303.15 K, 33923 kPa | 746.4
303.15 K, 33961 kPa | 746.4
303.15 K, 33984 kPa | 746.6
303.15 K, 34018 kPa | 746.6
303.15 K, 34044 kPa | 746.5
303.15 K, 34068 kPa | 746.5
303.15 K, 34100 kPa | 746.6
303.15 K, 34124 kPa | 746.5
303.15 K, 34151 kPa | 746.6
303.15 K, 34180 kPa | 746.5
303.15 K, 34218 kPa | 746.6
303.15 K, 34247 kPa | 746.6
303.15 K, 34265 kPa | 746.8
303.15 K, 34284 kPa | 746.8
303.15 K, 34306 kPa | 746.8
303.15 K, 34332 kPa | 746.7
303.15 K, 34354 kPa | 746.7
303.15 K, 34372 kPa | 746.8
303.15 K, 34395 kPa | 746.7
303.15 K, 34422 kPa | 746.8
303.15 K, 34443 kPa | 746.9
303.15 K, 34449 kPa | 746.8
303.16 K, 4203 kPa | 725.7
303.16 K, 4220 kPa | 725.6
303.16 K, 4238 kPa | 725.7
303.16 K, 4251 kPa | 725.8
303.16 K, 4264 kPa | 725.7
303.16 K, 4275 kPa | 725.6
303.16 K, 4290 kPa | 725.8
303.16 K, 4305 kPa | 725.8
303.16 K, 4325 kPa | 725.8
303.16 K, 4341 kPa | 725.8
303.16 K, 4354 kPa | 725.8
303.16 K, 4367 kPa | 725.9
303.16 K, 4380 kPa | 725.8
303.16 K, 4395 kPa | 725.9
303.16 K, 4407 kPa | 725.9
303.16 K, 4422 kPa | 725.8
303.16 K, 4433 kPa | 725.9
303.16 K, 4451 kPa | 725.9
303.16 K, 4466 kPa | 725.8
303.16 K, 4480 kPa | 725.9
303.16 K, 4496 kPa | 726
303.16 K, 4508 kPa | 726
303.16 K, 4521 kPa | 725.9
303.16 K, 4534 kPa | 725.9
303.16 K, 4547 kPa | 726
303.16 K, 4563 kPa | 726
303.16 K, 4577 kPa | 726.1
303.16 K, 4593 kPa | 726
303.16 K, 4606 kPa | 726
303.16 K, 4625 kPa | 726
303.16 K, 4643 kPa | 726
303.16 K, 4656 kPa | 726.1
303.16 K, 4675 kPa | 726.1
303.16 K, 4693 kPa | 726.1
303.16 K, 4708 kPa | 726.1
303.16 K, 4723 kPa | 726.1
303.16 K, 4736 kPa | 726.2
303.16 K, 4754 kPa | 726.1
303.16 K, 4774 kPa | 726.2
303.16 K, 4788 kPa | 726.2
303.16 K, 4802 kPa | 726.1
303.16 K, 4819 kPa | 726.2
303.16 K, 4835 kPa | 726.2
303.16 K, 4846 kPa | 726.2
303.16 K, 4858 kPa | 726.3
303.16 K, 4870 kPa | 726.2
303.16 K, 4881 kPa | 726.1
303.16 K, 4893 kPa | 726.1
303.16 K, 4904 kPa | 726.2
303.16 K, 4918 kPa | 726.3
303.16 K, 4931 kPa | 726.3

Source: the NIST ThermoML archive (doi:10.1021/je800110r)
